Results taken from ChEMBL document CHEMBL1914370, “A Pd-mediated new strategy to functionalized 2-aminochromenes: their in vitro evaluation as potential anti tuberculosis agents” (Bioorg Med Chem Lett, 2011).

tested on: Mycobacterium tuberculosis H37Rv; assay: Inhibition of Mycobacterium tuberculosis H37Rv chorismate mutase expressed in Escherichia coli BL21 (DE3) assessed as conversion of chorismate to prephenate at 50 uM after 5 mins by spectrophotometry

| SMILES | inhibition [%] |
| --- | --- |
| CC(=O)/C=C/c1cccc(C2C(C#N)=C(N)Oc3ccc4ccccc4c32)c1 (centres undefined) | 10 |
| N#CC1=C(N)Oc2ccc3ccccc3c2C1c1cccc(C#CCCO)c1 (centres undefined) | 69 |
| CC(C)(C)OC(=O)/C=C/c1cccc(C2C(C#N)=C(N)Oc3ccc4ccccc4c32)c1 (centres undefined) | 64 |
| N#CC1=C(N)Oc2c(ccc3ccccc23)C1c1ccccc1C#CC1(O)CCCCC1 (centres undefined) | 24 |
| N#CC1=C(N)Oc2c(ccc3ccccc23)C1c1cccc(C#CCCCO)c1 (centres undefined) | 32 |
| COC(=O)/C=C/c1cccc(C2C(C#N)=C(N)Oc3ccc4ccccc4c32)c1 (centres undefined) | 33 |
| N#CC1=C(N)Oc2c(ccc3ccccc23)C1c1cccc(C#CC2(O)CCCCC2)c1 (centres undefined) | 28 |
| CCCCC#Cc1ccccc1C1C(C#N)=C(N)Oc2c1ccc1ccccc21 (centres undefined) | 57 |
| CCOC(=O)/C=C/c1cccc(C2C(C#N)=C(N)Oc3ccc4ccccc4c32)c1 (centres undefined) | 30 |
| CCCCCCC#Cc1ccccc1C1C(C#N)=C(N)Oc2c1ccc1ccccc21 (centres undefined) | 55 |
| CCCCCCCCC#Cc1ccccc1C1C(C#N)=C(N)Oc2c1ccc1ccccc21 (centres undefined) | 50 |
| N#CC1=C(N)Oc2ccc3ccccc3c2C1c1cccc(C#CCCCO)c1 (centres undefined) | 70 |

tested on: not listed separately; assay: (§1) Inhibition of Mycobacterium tuberculosis H37Rv chorismate mutase expressed in Escherichia coli BL21 (DE3) assessed as conversion of chorismate to prephenate after 5 mins by spectrophotometry

| SMILES | IC50 [µM] |
| --- | --- |
| N#CC1=C(N)Oc2ccc3ccccc3c2C1c1cccc(C#CCCCO)c1 (centres undefined) | 15.6 |

tested on: Mycobacterium tuberculosis H37Rv; assay: as §1

| SMILES | inhibition |
| --- | --- |
| N#CC1=C(N)Oc2ccc3ccccc3c2C1c1cccc(C#CCCCO)c1 (centres undefined) | Dose-dependent effect |
